Source: publication PMC6812009, “Covalent Aurora A regulation by the metabolic integrator coenzyme A” (Redox Biology, 2019)

Tests used:
Experiment in all cases: Kinase profiling screen (radioactive filter-binding assay)
Type in all cases: biochemical
YES1 = YES1 (Homo sapiens, UniProt P07947); conditions: for activity at 100 µM: 100 μM compound, 20 μM ATP, read-out: Kinase activity, % of activity in the absence of inhibitor
Method: (§1) Profiling of 117 protein kinases with CoA, dpCoA and ADP was carried out at the International Centre for Protein Kinase Profiling at the University of Dundee. Each compound was tested in vitro, in duplicate, at 100 μM final concentration using recombinant kinases, model substrates and optimal concentrations of ATP. Bacterially expressed full-length His-Aurora A was used to determine the IC50 value for CoA (in the presence or absence of DTT), dpCoA, ADP and desulfo-CoA. The assay was performed in the presence of 5 μM competing ATP. To examine whether the inhibitory effect of CoA on Aurora A is modulated by TPX2, IC50 values for CoA were also generated in the presence and absence of 1 μg TPX2 (residues 1–43) fragment.

PDK1 = molecular target: T1, PDK1 (Homo sapiens, UniProt O15530); conditions: 100 μM compound, 20 μM ATP; read-out: Kinase activity, % of activity in the absence of inhibitor
T1 sequence (O15530 1-556): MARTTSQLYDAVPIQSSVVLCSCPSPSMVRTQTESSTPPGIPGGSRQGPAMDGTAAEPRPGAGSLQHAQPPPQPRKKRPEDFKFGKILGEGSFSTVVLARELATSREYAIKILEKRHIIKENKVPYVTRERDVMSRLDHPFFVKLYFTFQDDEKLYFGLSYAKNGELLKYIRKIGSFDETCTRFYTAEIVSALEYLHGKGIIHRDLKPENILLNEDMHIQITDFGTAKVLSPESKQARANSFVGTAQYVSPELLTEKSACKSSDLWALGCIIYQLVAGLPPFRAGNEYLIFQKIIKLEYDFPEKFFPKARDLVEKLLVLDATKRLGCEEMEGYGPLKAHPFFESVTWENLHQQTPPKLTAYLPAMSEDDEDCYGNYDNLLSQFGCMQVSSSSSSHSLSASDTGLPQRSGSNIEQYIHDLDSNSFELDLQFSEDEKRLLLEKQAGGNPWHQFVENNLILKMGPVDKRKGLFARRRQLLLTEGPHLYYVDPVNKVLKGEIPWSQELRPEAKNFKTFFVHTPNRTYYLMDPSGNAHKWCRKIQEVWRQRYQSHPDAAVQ
Method: as §1

PRK2 = PRK2 (Homo sapiens, UniProt Q16513); conditions: 100 μM compound, 5 μM ATP; read-out: Kinase activity, % of activity in the absence of inhibitor
Method: as §1

MLK1 = MLK1 (Homo sapiens, UniProt P80192); conditions: 100 μM compound, 20 μM ATP; read-out: Kinase activity, % of activity in the absence of inhibitor
Method: as §1

JNK1 = JNK1 (Homo sapiens, UniProt P45983); conditions: 100 μM compound, 20 μM ATP; read-out: Kinase activity, % of activity in the absence of inhibitor
Method: as §1

HIPK3 = HIPK3 (Homo sapiens, UniProt Q9H422); conditions: 100 μM compound, 20 μM ATP; read-out: Kinase activity, % of activity in the absence of inhibitor
Method: as §1

PLK1 = PLK1 (Homo sapiens, UniProt P53350); conditions: 100 μM compound, 5 μM ATP; read-out: Kinase activity, % of activity in the absence of inhibitor
Method: as §1

RSK1 = RSK1 (Homo sapiens, UniProt Q15418); conditions: 100 μM compound, 50 μM ATP; read-out: Kinase activity, % of activity in the absence of inhibitor
Method: as §1

BRK = BRK (Homo sapiens, UniProt Q13882); conditions: 100 μM compound, 20 μM ATP; read-out: Kinase activity, % of activity in the absence of inhibitor
Method: as §1

PAK4 = PAK4 (Homo sapiens, UniProt O96013); conditions: 100 μM compound, 5 μM ATP; read-out: Kinase activity, % of activity in the absence of inhibitor
Method: as §1

IRAK4 = molecular target: T2, IRAK4 (Homo sapiens, UniProt Q9NWZ3); conditions: 100 μM compound, 20 μM ATP; read-out: Kinase activity, % of activity in the absence of inhibitor
T2 sequence (Q9NWZ3 1-460): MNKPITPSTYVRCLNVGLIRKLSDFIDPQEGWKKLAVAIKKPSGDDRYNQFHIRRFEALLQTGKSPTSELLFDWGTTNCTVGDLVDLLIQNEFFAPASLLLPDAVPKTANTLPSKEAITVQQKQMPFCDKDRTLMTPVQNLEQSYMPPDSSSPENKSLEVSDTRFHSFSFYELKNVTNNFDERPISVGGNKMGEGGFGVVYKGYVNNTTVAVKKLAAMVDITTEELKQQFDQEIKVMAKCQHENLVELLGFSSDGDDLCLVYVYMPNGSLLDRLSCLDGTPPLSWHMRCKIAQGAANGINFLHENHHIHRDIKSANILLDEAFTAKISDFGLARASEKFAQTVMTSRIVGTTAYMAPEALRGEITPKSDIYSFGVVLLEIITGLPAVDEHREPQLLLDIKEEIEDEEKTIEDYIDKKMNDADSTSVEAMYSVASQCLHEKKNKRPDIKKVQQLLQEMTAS
Method: as §1

HER4 = HER4 (Homo sapiens, UniProt Q15303); conditions: 100 μM compound, 5 μM ATP; read-out: Kinase activity, % of activity in the absence of inhibitor
Method: as §1

MST4 = MST4 (Homo sapiens, UniProt Q9P289); conditions: 100 μM compound, 20 μM ATP; read-out: Kinase activity, % of activity in the absence of inhibitor
Method: as §1

MLK3 = MLK3 (Homo sapiens, UniProt Q16584); conditions: 100 μM compound, 20 μM ATP; read-out: Kinase activity, % of activity in the absence of inhibitor
Method: as §1

EF2K = EF2K (Homo sapiens, UniProt O00418); conditions: 100 μM compound, 5 μM ATP; read-out: Kinase activity, % of activity in the absence of inhibitor
Method: as §1

Lck = Lck (Homo sapiens, UniProt P06239); conditions: 100 μM compound, 50 μM ATP; read-out: Kinase activity, % of activity in the absence of inhibitor
Method: as §1

MEKK1 = MEKK1 (Homo sapiens, UniProt Q13233); conditions: 100 μM compound, 20 μM ATP; read-out: Kinase activity, % of activity in the absence of inhibitor
Method: as §1

JAK2 = JAK2 (Homo sapiens, UniProt O60674); conditions: 100 μM compound, 5 μM ATP; read-out: Kinase activity, % of activity in the absence of inhibitor
Method: as §1

Chain of MST4 (Q9P289 whole entry): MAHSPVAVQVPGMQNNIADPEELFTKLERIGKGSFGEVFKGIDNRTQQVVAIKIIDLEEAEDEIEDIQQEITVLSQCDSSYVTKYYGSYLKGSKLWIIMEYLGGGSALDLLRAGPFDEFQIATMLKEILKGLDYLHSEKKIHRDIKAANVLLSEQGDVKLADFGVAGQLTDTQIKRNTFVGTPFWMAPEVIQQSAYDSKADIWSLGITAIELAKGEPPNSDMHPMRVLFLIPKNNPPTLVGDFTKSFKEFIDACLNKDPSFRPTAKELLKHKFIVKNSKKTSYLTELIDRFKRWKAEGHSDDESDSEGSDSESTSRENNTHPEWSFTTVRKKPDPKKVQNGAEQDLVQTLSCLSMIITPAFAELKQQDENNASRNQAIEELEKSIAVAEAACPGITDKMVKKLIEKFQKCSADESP
Chain of PLK1 (P53350 whole entry): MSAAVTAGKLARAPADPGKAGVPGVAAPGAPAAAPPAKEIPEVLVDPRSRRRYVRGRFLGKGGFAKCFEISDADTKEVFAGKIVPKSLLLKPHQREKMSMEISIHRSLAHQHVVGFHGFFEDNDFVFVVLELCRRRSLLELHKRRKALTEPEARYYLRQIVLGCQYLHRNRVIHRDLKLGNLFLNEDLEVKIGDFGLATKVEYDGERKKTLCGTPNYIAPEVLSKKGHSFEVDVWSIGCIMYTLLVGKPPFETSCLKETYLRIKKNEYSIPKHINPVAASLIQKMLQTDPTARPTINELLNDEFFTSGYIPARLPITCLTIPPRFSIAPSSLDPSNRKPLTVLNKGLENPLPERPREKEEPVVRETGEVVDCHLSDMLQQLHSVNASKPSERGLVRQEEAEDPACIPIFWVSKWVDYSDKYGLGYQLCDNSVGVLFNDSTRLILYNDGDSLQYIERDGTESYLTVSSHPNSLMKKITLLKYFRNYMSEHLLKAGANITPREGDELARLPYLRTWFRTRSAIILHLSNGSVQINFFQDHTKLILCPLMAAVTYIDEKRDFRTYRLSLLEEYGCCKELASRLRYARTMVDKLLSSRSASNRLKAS
Chain of Lck (P06239 whole entry): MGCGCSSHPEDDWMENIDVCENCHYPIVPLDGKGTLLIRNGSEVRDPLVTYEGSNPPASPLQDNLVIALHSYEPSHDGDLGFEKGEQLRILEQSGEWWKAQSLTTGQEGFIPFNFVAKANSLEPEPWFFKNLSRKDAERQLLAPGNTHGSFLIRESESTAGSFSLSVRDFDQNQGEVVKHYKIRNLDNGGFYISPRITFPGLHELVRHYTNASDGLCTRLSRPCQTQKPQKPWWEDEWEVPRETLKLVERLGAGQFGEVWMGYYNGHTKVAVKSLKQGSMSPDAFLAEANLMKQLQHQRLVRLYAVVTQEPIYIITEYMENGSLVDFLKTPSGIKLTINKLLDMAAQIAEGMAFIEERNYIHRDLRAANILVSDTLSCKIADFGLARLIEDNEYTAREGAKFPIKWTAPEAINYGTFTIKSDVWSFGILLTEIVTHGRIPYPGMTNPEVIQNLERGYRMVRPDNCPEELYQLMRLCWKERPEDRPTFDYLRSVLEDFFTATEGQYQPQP
Chain of HIPK3 (Q9H422 whole entry): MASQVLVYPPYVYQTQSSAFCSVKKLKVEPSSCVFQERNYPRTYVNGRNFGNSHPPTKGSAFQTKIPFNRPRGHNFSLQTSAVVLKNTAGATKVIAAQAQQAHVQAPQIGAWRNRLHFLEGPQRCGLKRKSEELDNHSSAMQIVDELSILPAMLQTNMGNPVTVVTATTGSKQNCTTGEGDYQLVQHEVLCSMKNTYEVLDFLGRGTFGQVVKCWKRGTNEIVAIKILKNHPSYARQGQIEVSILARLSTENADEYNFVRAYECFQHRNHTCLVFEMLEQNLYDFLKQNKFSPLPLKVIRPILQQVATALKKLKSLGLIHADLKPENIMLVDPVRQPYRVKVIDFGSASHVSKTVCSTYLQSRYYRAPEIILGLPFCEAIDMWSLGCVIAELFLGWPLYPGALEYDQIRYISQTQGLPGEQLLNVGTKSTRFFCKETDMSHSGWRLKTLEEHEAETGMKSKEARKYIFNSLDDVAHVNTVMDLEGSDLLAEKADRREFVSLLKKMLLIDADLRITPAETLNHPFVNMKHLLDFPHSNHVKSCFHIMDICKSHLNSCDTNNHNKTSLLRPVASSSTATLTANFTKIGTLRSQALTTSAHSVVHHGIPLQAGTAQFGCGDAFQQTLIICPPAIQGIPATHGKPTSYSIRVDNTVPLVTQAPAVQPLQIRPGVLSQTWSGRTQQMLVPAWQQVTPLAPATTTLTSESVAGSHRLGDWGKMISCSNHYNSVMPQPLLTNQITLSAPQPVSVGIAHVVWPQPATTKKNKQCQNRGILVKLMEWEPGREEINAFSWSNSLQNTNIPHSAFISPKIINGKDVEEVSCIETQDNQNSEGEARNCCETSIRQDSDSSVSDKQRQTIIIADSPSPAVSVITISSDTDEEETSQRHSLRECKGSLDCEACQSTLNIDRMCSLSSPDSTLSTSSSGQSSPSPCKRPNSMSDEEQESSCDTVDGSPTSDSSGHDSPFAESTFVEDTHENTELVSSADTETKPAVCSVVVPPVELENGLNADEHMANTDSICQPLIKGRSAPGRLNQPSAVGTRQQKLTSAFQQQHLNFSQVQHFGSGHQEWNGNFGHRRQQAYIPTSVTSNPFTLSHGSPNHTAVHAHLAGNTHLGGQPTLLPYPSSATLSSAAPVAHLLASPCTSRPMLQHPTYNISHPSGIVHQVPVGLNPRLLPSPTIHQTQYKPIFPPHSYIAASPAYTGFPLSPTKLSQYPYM
Chain of BRK (Q13882 whole entry): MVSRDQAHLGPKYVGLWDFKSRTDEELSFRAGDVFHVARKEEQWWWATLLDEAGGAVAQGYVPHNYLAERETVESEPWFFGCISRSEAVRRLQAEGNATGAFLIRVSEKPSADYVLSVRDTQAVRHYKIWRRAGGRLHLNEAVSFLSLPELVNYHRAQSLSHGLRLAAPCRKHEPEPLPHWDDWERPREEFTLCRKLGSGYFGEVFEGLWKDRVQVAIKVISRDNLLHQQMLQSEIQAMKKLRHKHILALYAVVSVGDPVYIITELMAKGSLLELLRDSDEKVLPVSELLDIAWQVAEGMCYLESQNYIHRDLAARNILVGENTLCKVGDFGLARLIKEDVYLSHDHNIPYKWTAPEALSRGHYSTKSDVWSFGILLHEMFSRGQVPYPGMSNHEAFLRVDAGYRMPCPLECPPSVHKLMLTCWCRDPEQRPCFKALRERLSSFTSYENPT
Chain of PAK4 (O96013 whole entry): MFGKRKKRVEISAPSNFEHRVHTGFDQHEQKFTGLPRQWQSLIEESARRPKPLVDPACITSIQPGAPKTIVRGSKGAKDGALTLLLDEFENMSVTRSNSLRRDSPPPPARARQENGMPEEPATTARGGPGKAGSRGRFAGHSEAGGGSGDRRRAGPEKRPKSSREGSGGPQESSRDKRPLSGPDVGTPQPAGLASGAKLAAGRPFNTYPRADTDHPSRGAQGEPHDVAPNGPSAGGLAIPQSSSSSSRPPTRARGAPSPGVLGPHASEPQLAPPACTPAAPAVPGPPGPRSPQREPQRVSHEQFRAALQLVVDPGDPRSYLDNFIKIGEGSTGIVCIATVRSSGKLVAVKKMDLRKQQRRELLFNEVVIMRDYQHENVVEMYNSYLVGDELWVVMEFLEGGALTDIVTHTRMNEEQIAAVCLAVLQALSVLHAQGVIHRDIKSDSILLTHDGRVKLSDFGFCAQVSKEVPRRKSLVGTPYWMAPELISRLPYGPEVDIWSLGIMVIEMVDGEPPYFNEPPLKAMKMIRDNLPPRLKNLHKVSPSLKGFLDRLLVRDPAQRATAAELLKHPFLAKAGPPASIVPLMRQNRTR
Chain of HER4 (Q15303 26-1308): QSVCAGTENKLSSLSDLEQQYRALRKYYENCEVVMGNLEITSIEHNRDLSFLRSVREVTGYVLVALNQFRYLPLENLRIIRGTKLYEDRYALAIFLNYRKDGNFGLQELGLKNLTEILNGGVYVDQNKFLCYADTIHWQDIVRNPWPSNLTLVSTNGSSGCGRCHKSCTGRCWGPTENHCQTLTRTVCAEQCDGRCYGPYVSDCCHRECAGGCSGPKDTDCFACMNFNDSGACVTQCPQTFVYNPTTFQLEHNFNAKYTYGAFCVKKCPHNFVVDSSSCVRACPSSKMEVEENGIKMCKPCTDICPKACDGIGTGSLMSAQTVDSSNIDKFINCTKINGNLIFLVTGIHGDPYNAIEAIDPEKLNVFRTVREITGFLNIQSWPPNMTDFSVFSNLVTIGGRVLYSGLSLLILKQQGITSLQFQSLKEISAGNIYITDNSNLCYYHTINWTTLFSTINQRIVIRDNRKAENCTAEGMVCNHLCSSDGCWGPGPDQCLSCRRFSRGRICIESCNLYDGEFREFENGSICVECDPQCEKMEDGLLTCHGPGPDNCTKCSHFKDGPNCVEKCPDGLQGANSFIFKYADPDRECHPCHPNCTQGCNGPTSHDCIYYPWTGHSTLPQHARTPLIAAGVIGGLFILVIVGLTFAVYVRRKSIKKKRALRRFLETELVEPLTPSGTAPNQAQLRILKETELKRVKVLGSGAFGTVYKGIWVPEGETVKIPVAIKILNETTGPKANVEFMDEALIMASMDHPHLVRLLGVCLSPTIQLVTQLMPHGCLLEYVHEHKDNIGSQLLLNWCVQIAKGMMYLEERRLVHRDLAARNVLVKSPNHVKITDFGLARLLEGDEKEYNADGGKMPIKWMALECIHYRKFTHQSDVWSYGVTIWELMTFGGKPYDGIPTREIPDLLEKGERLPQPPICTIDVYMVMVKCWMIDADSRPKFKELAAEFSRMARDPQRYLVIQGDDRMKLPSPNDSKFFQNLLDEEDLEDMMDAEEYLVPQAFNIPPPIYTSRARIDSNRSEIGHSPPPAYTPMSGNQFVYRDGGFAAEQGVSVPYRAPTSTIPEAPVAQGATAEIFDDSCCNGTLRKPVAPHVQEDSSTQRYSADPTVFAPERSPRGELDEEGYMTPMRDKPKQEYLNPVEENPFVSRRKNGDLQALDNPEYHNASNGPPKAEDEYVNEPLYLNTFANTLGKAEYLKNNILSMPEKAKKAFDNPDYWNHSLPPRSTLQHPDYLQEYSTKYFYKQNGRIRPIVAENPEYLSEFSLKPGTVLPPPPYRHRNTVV

| Compound | activity at 100 µM (YES1) [%] | activity at 100 µM (PDK1) [%] | activity at 100 µM (PRK2) [%] | activity at 100 µM (MLK1) [%] | activity at 100 µM (JNK1) [%] | activity at 100 µM (HIPK3) [%] | activity at 100 µM (PLK1) [%] | activity at 100 µM (RSK1) [%] | activity at 100 µM (BRK) [%] | activity at 100 µM (PAK4) [%] | activity at 100 µM (IRAK4) [%] | activity at 100 µM (HER4) [%] | activity at 100 µM (MST4) [%] | activity at 100 µM (MLK3) [%] | activity at 100 µM (EF2K) [%] | activity at 100 µM (Lck) [%] | activity at 100 µM (MEKK1) [%] | activity at 100 µM (JAK2) [%] | inhibition at 100 µM (YES1; 100 μM CoA, kinase profiling screen, read-out: YES inhibition) [%] | YES inhibition (in words) (YES1; kinase profiling, 100 μM) |
| --- | --- | --- | --- | --- | --- | --- | --- | --- | --- | --- | --- | --- | --- | --- | --- | --- | --- | --- | --- | --- |
| Nc1ncnc2c1ncn2C1OC(COP(=O)(O)OP(=O)(O)O)C(O)C1O (centres unmarked) [ADP] | 18.6 | 23.3 | 20.8 | 41.4 | 53.9 | 34.2 | 52.2 | 58.5 | 41.3 | 73.8 | 82.1 | 29.1 | 56.9 | 46.8 | 86.2 | 35.1 | 68.1 | 7.1 | – | – |
| CC(C)(COP(=O)(O)OP(=O)(O)OC[C@H]1O[C@@H](n2cnc3c(N)ncnc32)[C@H](O)[C@@H]1OP(=O)(O)O)[C@@H](O)C(=O)NCCC(=O)NCCS [CoA, Coenzyme A] | 49 | 113 | 71.3 | 110 | 85.4 | 123 | 101 | 97.2 | 114 | 69.9 | 89.1 | 100 | 107 | 70.2 | 67.1 | 100 | 96.3 | 106 | ≤ 50 | modestly inhibited |
| CC(C)(COP(=O)(O)OP(=O)(O)OCC1OC(n2cnc3c(N)ncnc32)C(O)C1O)C(O)C(=O)NCCC(=O)NCCS (centres unmarked) [dpCoA, dephospho-CoA] | 11.5 | 91.2 | 67.5 | 76 | 82.4 | 91.5 | 100 | 98.9 | 83.1 | 75.9 | 74.8 | 75.7 | 89.7 | 61.9 | 103 | 69 | 106 | 62.5 | – | – |
